The text below walks through data of patent US20260263426A1, “DIAMIDINE ANALOGS FOR ANTI-INFLAMMATORY USE” (MONTDOREX INC., priority 2023, published 2026).

One experiment deals with HCT-116. The experiment in a line: HCT-116 IC50 (Table 1). It counts as cell-based. The following applies: Homo sapiens.
The next experiment deals with endo-exonuclease. As to the kind of experiment: inhibition of endo-exonuclease activity, in-vitro. The conditions noted are these: read-out: EE IC50. The format is biochemical. An excerpt:
The inhibition of endo-exonuclease has been measured using pentamidine and a pentamidine analog where the center site of pentamidine (the carbon backbone) has been altered. Endo-exonuclease inhibition has been tested in-vitro.

The test system of experiment [1] is non-alcoholic fatty liver disease. The following applies: mice; Zhao E et al (2017) Hepatology 66:922-935; cited from earlier work.

As to `N=C(N)c1ccc(OCCCCCCCCCCOc2ccc(C(=N)N)cc2)cc1` [Decamidine-isethionate], the IC50 (commonly the concentration that inhibits the measured activity by half) worked out at 6.2 µM in the experiment with HCT-116 and 23.2 µM in the experiment with endo-exonuclease.

In the experiment on HCT-116, `Cl.Cl.N=C(N)c1ccc(OCCCCCOc2ccc(C(=N)N)cc2)cc1` [Pentamidine HCl] displayed an IC50 of 107 µM. Also, in experiment [1], the body weight entry was “reduces”, the food intake result was “reduces”, the hepatic triglycerides entry is “reduces” and the “serum ALT” value was “reduces”. The IC50 in the experiment on endo-exonuclease was 53.1 µM.
